Values of other authors, collected in patent US20040258741A1, “Percutaneous absorption preparations” (priority 2001, published 2004).
Structures can show the parent of a compound that is named as a salt.

What was measured:
AChE [1] = molecular target: T1, AChE (Homo sapiens, UniProt P22303)
AChE [2] = molecular target: T1, AChE; conditions: in vitro
intracranial ACh = conditions: in vivo

T1 sequence (P22303 32-614): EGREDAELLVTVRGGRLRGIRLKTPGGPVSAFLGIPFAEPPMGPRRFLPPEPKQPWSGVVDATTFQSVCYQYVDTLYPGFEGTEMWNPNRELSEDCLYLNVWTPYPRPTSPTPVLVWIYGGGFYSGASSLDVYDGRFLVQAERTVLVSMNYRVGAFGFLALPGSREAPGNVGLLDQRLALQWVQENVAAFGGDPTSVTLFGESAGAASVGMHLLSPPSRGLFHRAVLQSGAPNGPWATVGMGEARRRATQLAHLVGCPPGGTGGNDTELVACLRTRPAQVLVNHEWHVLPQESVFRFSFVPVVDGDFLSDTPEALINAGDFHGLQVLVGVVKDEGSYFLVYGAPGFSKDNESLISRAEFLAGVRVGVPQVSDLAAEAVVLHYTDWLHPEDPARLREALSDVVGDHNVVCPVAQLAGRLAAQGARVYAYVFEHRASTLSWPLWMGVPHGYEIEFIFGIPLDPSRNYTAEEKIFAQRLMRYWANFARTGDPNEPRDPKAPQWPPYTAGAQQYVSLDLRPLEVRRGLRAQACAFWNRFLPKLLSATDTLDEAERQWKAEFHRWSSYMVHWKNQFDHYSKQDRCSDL

| Compound | in vitro AChE inhibition action compared with Donepezil (AChE [1]) | AChE selectivity compared with tacrine (AChE [2]) | intracranial ACh (intracranial ACh) |
| --- | --- | --- | --- |
| COc1cc2c(cc1OC)C(=O)C(F)(CC1CCN(Cc3cccc(F)c3)CC1)C2 (stereo not drawn) [ER-127528, 4-[(5,6-dimethoxy-2-fluoro-1-indanon)-2-yl]methyl-1-(3-fluorobenzyl)piperidine hydrochloride] | stronger in vitro AChE inhibition action than Donepezil | – | – |
| O=C(O)/C=C\C(=O)O.O=C1Cc2cc3c(CCC4CCN(Cc5ccccc5)CC4)noc3cc2N1 [Icopezil, 5,7-dihydro-3-[2-[1-(phenylmethyl)-4-piperidinyl]ethyl]-6H-pyrrolo-[4,5-f]-1,2-benzisoxazol-6-one maleate] | – | higher AChE selectivity than the existing AChE inhibitor tacrine | clearly increases intracranial ACh in vivo |
